Measured values as given in patent publication US5563142A, “Diaromatic substituted compounds as anti-HIV-1 agents” (The Upjohn Company, priority 1994, dated 1996).

Legend:
HIV = settings: cited from earlier work
[1] = system: HIV in primary human peripheral blood lymphocytes; assay: Primary PBL assay: inhibition of viral replication (p24 & RNA); format: cell-based; settings: Human immunodeficiency virus 1, Lymphocyte, primary human lymphocytes infected with HIV, days three and four, read-out: PBL INHIBITION OF VIRAL REPLICATION (p24 & RNA) ED50
How it was run: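 Mitogen-stimulated human PBLs infected with standardized HIV, cultured with drug 4 days at one tenth of the antiproliferative half-maximal concentration. Secreted p24 by capture-ELISA and total HIV RNA by hybridization on days 3 and 4, with viability in parallel; ED50 is the concentration giving 50% reduction in p24.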

[2] = system: HIV-1 (MT-2 cells infected with HIV-1); assay: Inhibition of HIV-induced syncytia formation in MT-2 cells; format: cell-based; settings: Human immunodeficiency virus 1, MT2; MT-2 cells infected with HIV-1; read-out: INHIBITION OF SYNCYTIA FORMATION ED50
From the text: This test is described in Quantitative Infectivity Assay for HIV-1 and -2., Nature 332: 469-470, 1988 as well as in AIDS RESEARCH AND HUMAN RETROVIRUSES, Vol. 4, No. 6, pages 449-455 (1988), Mary Ann Liebent, Inc., Publishers; in an article entitled "Nucleotide Dimers Suppress HIV Expression In VITRO". The results (IC50 means the concentration, in μM of drug, required to inhibit syncytia formation to the extent of 50%) of various assay(s) are combined and reported as % inhibition and IC50 (calculated).
ability of various compounds used to inhibit HIVinduced syncytia formatio
in a tissue culture assay using MT2 cells infected with HIV1. This test i
described by Nara et al., Quantitative infectivity assay for HIV1 and 2,
Nature 332, 469-470 (1988), as well as in AIDS RESEARCH AND HUMAN
RETROVIRUSES, vol. 4, No. 6, pages 449-455 (1988), Mary Ann Liebent, Inc.
Publishers, and in an article by Mariano Busso, et al., entitled
"Nucleotide Dimers Suppress HIV Expression In Vitro". The results
(ED50 means the concentration, in μM of drug, required to inhibit
syncytia formation to the extent of 50%) of various assay are combined an
reported in Table I. In comparison, the known commercial compound, AZT,
percent reductions in syncytia formation at concentrations of
approximately 1 μM and 0.5 μM, respectively.

[3] = molecular target: T1, viral reverse transcriptase (Human immunodeficiency virus type 1 group M subtype B, UniProt P04585); assay: Viral reverse transcriptase inhibition, cell free assay; format: biochemical, human immunodeficiency virus (HIV-1); settings: read-out: RT % INHIBITION (100 μM), 100 μM; poly rC or poly rG template
T1 construct: Viral reverse transcriptase is found in extracts from bacterial clones; made in house; host or cells: Escherichia coli (extracts of bacterial clones, by the procedure of Larder et al., EMBO J. 6:3133-3137, 1987)
How it was run: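 E. coli-expressed HIV-1 RT extract was incubated with inhibitor, 10 μM [35S]-dNTP, poly rC/rG template and oligo dG/dT primer in Tris pH 8.3 with Mg2+ at 37 °C (30 min; 15 min in an alternative version). DNA incorporation was counted on filters and reported as % inhibition (at 100 μM in one version) and IC50.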

| Compound | activity against HIV in vitro (HIV) | EC50 [1] [nM] | IC50 [2] [nM] | inhibition at 100 µM [3] [%] |
| --- | --- | --- | --- | --- |
| Nc1ccn([C@H]2CC[C@@H](CO)O2)c(=O)n1 [ddC] | potent activity | – | – | – |
| O=C(c1cc2ccccc2[nH]1)N1CCN(c2ncccc2NCC2CC2)CC1 [Example 31, 1-[Indolyl-2-carbonyl]-4-[3-(cyclopropylmethylamino)-2-pyridinyl]piperazine] | – | 100 to 1000 | 3000 | 65 to 71 |
| O=c1[nH]cnc2c1ncn2[C@H]1CC[C@@H](CO)O1 [ddI] | potent activity | – | – | – |
| CCOc1ccccc1N1CCN(C(=O)c2cc3cc(OC)ccc3[nH]2)CC1 [Example 12, 1-[5-Methoxyindolyl-2-carbonyl]-4-[2-ethoxyphenyl]piperazine] | – | 5000 to 10000 | < 300 | 64 to 80 |
| CCNc1cccnc1N1CCN(Cc2cc3ccccc3[nH]2)CC1 [Example 20, 1-[Indolyl-2-methyl]-4-[3-(ethylamino)-2-pyridinyl]piperazine] | – | 1000 | 10000 | 64 |
| CCNc1cccnc1N1CCN(C(=O)c2cc3cc(CC)ccc3[nH]2)CC1 [Example 24, 1-[5-Ethylindolyl-2-carbonyl]-4-[3-(ethylamino)-2-pyridinyl]piperazine] | – | 10 to 100 | 16000 | 65 to 70 |
| CCN(CC)c1cccnc1N1CCN(C(=O)c2cc3ccccc3[nH]2)CC1 [Example 19, 1-[Indolyl-2-carbonyl]-4-[3-(N,N-diethylamino)-2-pyridinyl]-piperazine] | – | 100 to 1000 | 3000 | 65 to 71 |
| CCNc1cccnc1N1CCN(C(=O)c2cc(C)c(OC)c(C)c2)CC1 [Example 1, 1-[4-Methoxy-3,5-dimethylbenzoyl]-4-[3-(ethylamino)-2-pyridinyl]piperazine] | – | 1000 | 10000 | 60 to 79 |
| CCNc1cccnc1N1CCN(C(=O)c2cc3cc(OC)c(OC)cc3[nH]2)CC1 [Example 133] | – | 10 | 1000 | 76 to 84 |
| COc1ccc2[nH]c(C(=O)N3CCN(c4ncccc4NC(C)C)CC3)cc2c1 [Example 26, 1-[5-Methoxyindolyl-2-carbonyl]-4-[3-(1-methylethylamino)-2-pyridinyl]piperazine] | – | 3 | 300 to 500 | 97 |
